Legend:
Human recombinant PREP = biological target: T1, Human recombinant PREP (Homo sapiens, UniProt P48147); assay: PREP IC50 measurement (N-succinyl-Gly-Pro-AMC); type: biochemical; settings: FIG. 1, Compound 1 versus Compound 0
T1 construct: made in house; host or cells: E. coli BL21(DE3)
T1 sequence (P48147 1-710): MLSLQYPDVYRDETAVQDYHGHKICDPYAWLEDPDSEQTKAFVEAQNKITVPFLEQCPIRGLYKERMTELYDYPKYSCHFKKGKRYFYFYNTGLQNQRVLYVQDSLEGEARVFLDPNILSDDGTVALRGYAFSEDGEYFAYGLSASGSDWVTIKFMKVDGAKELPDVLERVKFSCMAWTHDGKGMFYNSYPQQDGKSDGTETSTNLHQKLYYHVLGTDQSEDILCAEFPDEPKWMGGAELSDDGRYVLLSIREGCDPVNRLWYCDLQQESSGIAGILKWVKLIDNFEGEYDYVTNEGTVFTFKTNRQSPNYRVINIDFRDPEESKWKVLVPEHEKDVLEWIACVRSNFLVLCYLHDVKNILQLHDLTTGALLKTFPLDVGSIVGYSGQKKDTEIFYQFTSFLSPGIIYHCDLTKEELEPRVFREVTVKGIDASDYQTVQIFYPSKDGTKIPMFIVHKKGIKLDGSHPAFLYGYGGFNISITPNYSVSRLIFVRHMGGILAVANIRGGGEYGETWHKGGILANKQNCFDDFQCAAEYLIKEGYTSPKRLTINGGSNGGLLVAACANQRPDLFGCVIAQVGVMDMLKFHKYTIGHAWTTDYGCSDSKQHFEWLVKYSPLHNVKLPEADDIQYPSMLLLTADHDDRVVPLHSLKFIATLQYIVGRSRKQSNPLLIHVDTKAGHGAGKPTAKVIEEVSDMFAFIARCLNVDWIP
Excerpt: Used Enzymes in these Assays: • A gateway-entry clone for human FAP was purchased from Dharmacon (Accession number DQ891423) and the human secretion signal was replaced with the HoneyBee mellitin secretion signal. For transfection and expression of FAP in Sf9 insect cells the C-terminal BaculoDirect kit from LifeTechnologies was used. The enzyme was purified from the supernatant of the insect cells using immobilized Ni-chelating chromatography (GE healthcare, Diegem, Belgium), followed by anion-exchange chromatography using a 1 mL HiTrap Q and size exclusion chromatography using the Superdex 200 column (GE healthcare, Diegem, Belgium). • Human recombinant PREP was expressed in BL21(DE3) cells and purified using immobilized Co-chelating chromatography (GE healthcare), followed by anion-exchange chromatography on a 1 ml Mono Q column (GE healthcare). • DPP4 was purified from human seminal plasma. • Gateway-entry clones for human DPP8 and DPP9 were purchased from Dharmacon (Accession numbers DQ891733 and DQ892325 respectively). For transfection and expression of DPP8 and DPP9 in Sf9 insect cells the N-terminal BaculoDirect kit from LifeTechnologies was used. The enzymes were purified using immobilized Ni-chelating chromatography (GE healthcare, Diegem, Belgium), followed by anion-exchange chromatography using a 1 mL Mono Q (GE healthcare, Diegem, Belgium). • Recombinant human DPP2 was purchased from R&D.
Eight concentrations of inhibitors/probe were tested. The final DMSO concentration was kept constant during the experiment to exclude any effects. Inhibitors were pre-incubated with the enzyme for 15 minutes at 37° C., afterwards the substrate was added and the velocities of AMC release were measured kinetically at λex=380 nm, λem=465 nm for at least 10 minutes at 37° C. […] Eight concentrations of inhibitors were tested. The final DMSO concentration in kept constant during the experiment to exclude any effects. Inhibitors were pre-incubated with the enzyme for 15 minutes at 37° C., afterwards the substrate was added and the velocities of AMC release were measured kinetically at λex=380 nm, λem=465 nm for at least 10 minutes at 37° C. […] At least eight different inhibitor concentrations were used. The final DMSO concentration is kept constant during the experiment to exclude any effects. Inhibitors were pre-incubated with the enzyme for 15 minutes at 37° C., afterwards the substrate was added and the velocities of pNA release were measured kinetically at 405 nm for at least 10 minutes at 37° C. Measurements were done on the Infinite 200 (Tecan Group Ltd.) and the Magellan software was used to process the data. • For DPP2: Initial velocity measurements were carried out. Lys-Ala-pNA was used as the substrate at a concentration of 1 mM at pH 5.5 (100 mM NaAc, 10 mM EDTA, 14 μg/mL aprotinin). Inhibitors were tested at one concentration, 5 μM, being the final concentration in the well. Inhibitors were pre-incubated with the enzyme for 15 minutes at 37° C., afterwards the substrate was added and the velocities of pNA release were measured kinetically at 405 nm for at least 10 minutes at 37° C. Measurements were done on the Infinite 200 (Tecan Group Ltd.) and the Magellan software was used to process the data.

[1] = Partition coefficient (Log D) of radiotracer; type: physicochemical; settings: organic solvent / aqueous solution (solvents not named); mean with standard deviation (n=8)
Procedure: Radiotracer characterization: To assess the quality and suitability of compound 1 ([^18F]UAMC-4522) for specific applications, such as medical imaging, several parameters were determined. First, the decay-corrected RCY (Radiochemical Yield) was calculated. This indicates the percentage of the desired radioactively labeled molecule after correction for radioactive decay. It is calculated by dividing the amount of radioactively labeled molecule by the total radioactivity, taking into account the time elapsed since radiolabeling. Next, the Apparent Molar Activity (Am) was calculated. This represents the activity of the radiotracer per unit of substance (e.g. per micromole). It is calculated by dividing the activity of the radiotracer by the amount of labeled molecule used. Next, the Radiochemical Purity (RCP) was determined. This indicates the percentage of the radioactively labeled molecule relative to other chemical components or impurities. It is often determined using analytical techniques such as radio-HPLC (High-Performance Liquid Chromatography) or radio-TLC (Thin-Layer Chromatography). Finally, the Partition Coefficient (Log D) was calculated. This reflects the distribution of a substance between two solvents with different polarities. The Log D value represents the ratio of the concentrations of the substance in an organic solvent and an aqueous solution. […]

[2] = In vivo stability of radiotracer in plasma; set-up: species or system CD1 nude mice; settings: for Mean % intact radiotracer ± SD: CD1 nude mice
Procedure: (§1) For all in vivo studies the following experimental procedure was used. Mice (7- to 8-week old female CD1−/− nude mice) were injected with 5.1-7.4 MBq of compound 1 (n=9) via the lateral tail vein. At 15, 30, 60 (n=3 for each time point) post-radiotracer injection (p.i.) the blood was collected in EDTA-coated tubes through cardiac puncture and the mice were euthanized by cervical dislocation.
From the collected blood, the plasma fraction was obtained by centrifugation at 4,000 g for 7 min, and mixed (200 μL) with an equal volume of cold MeCN to enable sample deproteination. After vigorously vortexing and γ-counting, the samples were centrifuged at 4000 g for 4 min, and the supernatant and the pellet were γ-counted separately to determine the amount of recovered radioactivity in the organic phase. The radioactive contents of the supernatant were analyzed by analytical radio-HPLC. The eluate fractions were collected every 30 s and counted for radioactivity in an automated γ-counter.

U87MG xenografts [3] = assay: Ex vivo biodistribution in tumor-bearing animals; set-up: species or system mice; settings: 60 min p.i.
Procedure: In accordance with the PET results, the biodistribution study confirmed the high and specific tumor uptake of all FAP radioligands at 60 min post-injection (p.i.) (Table 6).

[4] = Biodistribution in control animals (FIG. 3); type: in vivo; settings: FIG. 3, normal CD1 nude mice, 15, 30, 60 min p.i.
Procedure: as §1
The uptake levels of the tracers were expressed as percentage of the injected dose per gram (% ID g^−1).
FIG. 3 summarizes the tissue biodistribution (% injected dose/gram of tissue) of [^18F]UAMC-4522 (compound 1) and of compound 0 in normal CD1 nude mice after 15, 30, and 60 min p.i. (n=3 per timepoint).

[5] = Metabolic stability comparison (FIG. 2); settings: FIG. 2, Compound 1 versus Compound 0
U87MG xenografts [6] = settings: mouse
Procedure: Dynamic whole-body PET images were acquired during 60 min. The average tumor or muscle activity per volume was obtained from the PET images and the decay-corrected time-activity curves (TACs) were extracted. At the end of the scans, the organs and tissues were harvested, weighed and the radioactivity in the samples was measured using an automatic γ-counter.

[7] = female, CD1-/- nude, in vivo, 60 min

[2H]C([2H])([18F])[N+](C)(C)CCCOc1ccc2nccc(C(=O)NCC(=O)N3CC(F)(F)C[C@H]3C#N)c2c1 [Compound 1]
selectivity for FAP with respect to PREP (in words) (Human recombinant PREP): significantly higher selectivity for FAP
logD [1]: -1.77 ± 0.01
Mean % intact radiotracer ± SD ([2]; 15 min p.i.): 74.84 ± 6.62%
Mean % intact radiotracer ± SD ([2]; 30 min p.i.): 60.23 ± 3.60%
Mean % intact radiotracer ± SD ([2]; 60 min p.i.): 56.47 ± 7.81%
Mean % intact radiotracer ± SD ([2]; time 0 min): 99.12 ± 0.51%
in vivo stability (in words) ([2]; compared with the control [68Ga]Ga-DOTA-FAPI-04): significantly higher
Tumor (% ID/g) (U87MG xenografts [3]): 10.98 ± 1.73 % ID/g
Tumor-to-blood (U87MG xenografts [3]): 6.35 ± 1.08
Tumor-to-liver (U87MG xenografts [3]): 4.77 ± 0.58
Tumor-to-muscle (U87MG xenografts [3]): 6.54 ± 1.36
Tumor-to-small intestine (U87MG xenografts [3]): 2.43 ± 0.12
biodistribution / excretion profile (in words) [4]: biodistribution profile including urinary excretion
metabolic stability (in words) [5]: significantly higher metabolic stability
tumor uptake (PET) (U87MG xenografts [6]; [7]): 10.16±2.22 % ID/mL
uptake in the muscle (PET) (U87MG xenografts [6]; [7]): 2.20±0.33 % ID/mL
uptake into tumor tissue in vivo (in words) (U87MG xenografts [6]): significantly higher uptake
nonspecific tumor uptake (in words) (U87MG xenografts [6]; in vivo): lower nonspecific tumor uptake
tumor time-activity curve (in words) (U87MG xenografts [6]; in vivo): early peak uptake in the tumor followed by retention or slight increase in the tumor
tumor uptake after pre-injection of UAMC-1110 (blocking study, in words) (U87MG xenografts [6]; in vivo): decrease in tumor uptake
